Consider eleven molecules from ChEMBL document CHEMBL5252666, “Discovery of CVN636: A Highly Potent, Selective, and CNS Penetrant mGluR7 Allosteric Agonist” (ACS Med Chem Lett, 2023).

Structures are written as SMILES. Calls of active or inactive are those of the source. The rule behind the calls is not given here.

Data set [1] deals with T1, Metabotropic glutamate receptor 7 (Homo sapiens, UniProt Q14831). Briefly: Agonist activity at human mGluR7 expressed in CHO cells expressing CRE-Luc reporter gene assessed as reduction in forskolin-stimulated cAMP production by measuring maximum efficacy preincubated for 15 mins followed by forskolin stimulation and measured after 5 hrs by luminescence based Steady glo assay relative to control. The format is cell-based. The settings on record: filed as agonist, time 315.0 min.

Data set [2] in a line: Stability in human liver microsomes assessed as intrinsic clearance preincubated for 60 mins followed by NADPH addition and measured upto 60 mins by LC-MS/MS analysis. The format is ADME, Microsome. As to conditions: time < 120 min, read-out: CLH.
The nature of data set [3]: Stability in rat liver microsomes assessed as intrinsic clearance preincubated for 60 mins followed by NADPH addition and measured upto 60 mins by LC-MS/MS analysis. The format is ADME, Microsome. The settings on record: time < 120 min, read-out: CLH.
For data set [4], the target named is T1, Metabotropic glutamate receptor 7. Briefly: Positive allosteric modulation of mGluR7 (unknown origin) assessed as change in forskolin-induced cAMP production by measuring reduction in maximum response preincubated with compound for 15 mins in the presence of LY341495 followed by forskolin stimulation and measured after 5 hrs by luminescence based steady glo assay. The arrangement: scale not given: the % may be the effect or the level left. As to conditions: filed as positive allosteric modulator, time 315.0 min.

For data set [5] the target is unchanged. Briefly: Positive allosteric modulation of mGluR7 (unknown origin) assessed as change in forskolin-induced cAMP production by measuring fold change in EC50 shift preincubated with compound for 15 mins in the presence of LY341495 followed by forskolin stimulation and measured after 5 hrs by luminescence based steady glo assay. The settings on record: filed as positive allosteric modulator, time 315.0 min.

Data set [6] shares this target. The data set is described as follows: Competitive binding affinity to mGluR7 (unknown origin) assessed as rightward shift in forskolin-induced cAMP production level by measuring fold change preincubated for 15 mins in the presence of LY341495 followed by forskolin stimulation and measured after 5 hrs by luminescence based steady glo assay. As to conditions: filed as agonist, time 315.0 min.

Data set [7] shares this target. Briefly: Agonist activity at human mGluR7 expressed in CHO cells assessed as change in extracellular impedance incubated for 40 mins by CellKey impedance assay. As to conditions: filed as agonist. It counts as cell-based.
For data set [8], the target named is Histamine H1 receptor (Homo sapiens) (UniProt P35367). The data set is described as follows: Binding affinity to human H1 receptor at 10 uM.
Data set [9] has as its target Adrenergic receptor alpha-1 (Rattus norvegicus) (UniProt P15823+P23944+P43140). The data set is described as follows: Binding affinity to rat alpha 1 adrenergic receptor at 10 uM. The format is protein assay.
Data set [10] deals with T1, Metabotropic glutamate receptor 7. The data set is described as follows: Allosteric agonist activity at mGluR7 (unknown origin) assessed as reduction in forskolin-induced cAMP production by measuring fold change in EC50 preincubated for 15 mins in the presence of LY341495 followed by forskolin stimulation and measured after 5 hrs by luminescence based steady glo assay. The settings on record: filed as agonist, time 315.0 min.

Data set [11] shares this target. The data set is described as follows: Agonist activity at human mGluR7b expressed in CHO cells assessed as inhibition of forskolin-stimulated cAMP accumulation. The format is cell-based.
For data set [12] the target is unchanged. Briefly: Desensitization at human mGluR7 expressed in CHO cells assessed as reduction in tool agonist response at 10 uM preincubated for 1 hrs followed by compound replacement with assay buffer and measured 1 hrs after tool agonist addition by CellKey impedance assay relative to control. The format is cell-based. Also on record: scale not given: the % may be the effect or the level left.

The target of data set [13] is Sodium-dependent noradrenaline transporter (Homo sapiens) (UniProt P23975). Briefly: Binding affinity to human norepinephrine transporter at 10 uM.
Data set [14] deals with T1, Metabotropic glutamate receptor 7. Briefly: Agonist activity at human mGluR7 expressed in CHO cells expressing CRE-Luc reporter gene assessed as reduction in forskolin-stimulated cAMP production preincubated for 15 mins followed by forskolin stimulation and measured after 5 hrs by luminescence based Steady glo assay. It counts as cell-based.
Data set [15] in a line: Half-life in Sprague-Dawley rat at 3 mg/kg, po measured after 24 hrs by LC-MS/MS analysis. The format is ADME, organism-based. The settings on record: in vivo.
A short description of data set [16]: Oral bioavailability in Sprague-Dawley rat at 3 mg/kg measured after 24 hrs by LC-MS/MS analysis. It counts as ADME, organism-based. The settings on record: in vivo.
Data set [17] deals with Metabotropic glutamate receptor 4 (Homo sapiens) (UniProt Q14833). Briefly: Agonist activity at human mGluR4 expressed in CHO cells assessed as reduction in forskolin-induced cAMP production incubated for 1 hrs by HTRF analysis. It counts as cell-based.
In data set [18] the target is Metabotropic glutamate receptor 5 (Homo sapiens) (UniProt P41594). Briefly: Agonist activity at mGluR5 (unknown origin) at 1 to 10 uM by Galphaqi5 calcium flux assay. The settings on record: dose 1-10 µM.
The nature of data set [19]: AUC(0 to infinity) in Sprague-Dawley rat at 3 mg/kg, po measured after 24 hrs by LC-MS/MS analysis. The format is ADME, organism-based. The arrangement: time 24 hrs, dose 3 mg/kg, route po. As to conditions: in vivo.
Data set [20] deals with Rattus norvegicus. The data set is described as follows: In vivo agonist activity in alcohol preferring Marchigian-Sardinian rat assessed as reduction in alcohol self-administration by measuring number of response at 3 mg/kg, po administered for 1 hrs. It counts as functional.
Data set [21] concerns Rattus norvegicus. The data set is described as follows: In vivo agonist activity in alcohol preferring Marchigian-Sardinian rat assessed as reduction in alcohol self-administration at 3 mg/kg, po administered for 1 hrs relative to control. It counts as functional. The arrangement: scale not given: the % may be the effect or the level left.
The nature of data set [22]: Stability in cryopreserved rat hepatocytes assessed as clearance measured for 120 mins by LC-MS/MS analysis. The format is ADME, cell-based, Hepatocyte. The settings on record: read-out: CLH.
Data set [23] can be described thus: Cmax in Sprague-Dawley rat at 3 mg/kg, po measured after 24 hrs by LC-MS/MS analysis. It counts as ADME, organism-based. The arrangement: dose 3 mg/kg, time 24 hrs, route po. As to conditions: in vivo.
Data set [24] concerns the target Metabotropic glutamate receptor 3 (Homo sapiens) (UniProt Q14832). Briefly: Agonist activity at mGluR3 (unknown origin) at 1 to 10 uM by Galphaqi5 calcium flux assay. As to conditions: dose 1-10 µM.
The nature of data set [25]: Tmax in Sprague-Dawley rat at 3 mg/kg, po measured after 24 hrs by LC-MS/MS analysis. The format is ADME, organism-based. As to conditions: in vivo.
Data set [26] is described as follows: Unbound fraction in rat brain incubated for 6 hrs by LC-MS/MS based rapid equilibrium dialysis. The format is ADME, tissue-based.
For data set [27], the target named is Metabotropic glutamate receptor 6 (Homo sapiens) (UniProt O15303). Briefly: Agonist activity at mGluR6 (unknown origin) at 1 to 10 uM by cAMP assay. The settings on record: dose 1-10 µM.
The nature of data set [28]: Ratio of unbound brain to plasma concentration in Sprague-Dawley rat at 3 mg/kg, po measured after 4 hrs by LC-MS/MS analysis. The format is ADME, organism-based.
In data set [29] the target is Metabotropic glutamate receptor 1 (Homo sapiens) (UniProt Q13255). Briefly: Agonist activity at mGluR1 (unknown origin) at 1 to 10 uM by Galphaqi5 calcium flux assay. The settings on record: dose 1-10 µM.
Data set [30] can be described thus: Ratio of drug concentration in Sprague-Dawley rat brain to plasma at 3 mg/kg, po measured after 4 hrs by LC-MS/MS analysis. It counts as ADME, organism-based.
Data set [31] in a line: Volume of distribution at steady state in Sprague-Dawley rat at 0.5 mg/kg, iv measured after 24 hrs by LC-MS/MS analysis. It counts as ADME, organism-based. The settings on record: in vivo.
Data set [32] has as its target Metabotropic glutamate receptor 7 (Mus musculus, UniProt Q68ED2). Briefly: Agonist activity at mouse mGluR7 expressed in CHO cells expressing CRE-Luc reporter gene assessed as reduction in forskolin-stimulated cAMP production preincubated for 15 mins followed by forskolin stimulation and measured after 5 hrs by luminescence based Steady glo assay. The format is cell-based.

Data set [33] deals with Metabotropic glutamate receptor 2 (Homo sapiens) (UniProt Q14416). The data set is described as follows: Agonist activity at mGluR2 (unknown origin) at 1 to 10 uM by cAMP assay. As to conditions: dose 1-10 µM.
Data set [34] in a line: Apparent permeability from apical to basolateral side in MDCK-MDR1 cells. As to conditions: dog. It counts as ADME, cell-based, Canis lupus familiaris.
A short description of data set [35]: Efflux ratio of apparent permeability in MDCK-MDR1 cells. It counts as ADME, cell-based, Canis lupus familiaris. As to conditions: dog.
Data set [36] can be described thus: Unbound fraction in rat plasma incubated for 6 hrs by LC-MS/MS based rapid equilibrium dialysis. It counts as ADME, cell-free.
The target of data set [37] is Metabotropic glutamate receptor 8 (Homo sapiens) (UniProt O00222). Briefly: Agonist activity at human mGluR8 expressed in CHO cells assessed as reduction in forskolin-induced cAMP production incubated for 1 hrs by HTRF analysis. The format is cell-based.
The target of data set [38] is T1, Metabotropic glutamate receptor 7. The data set is described as follows: Desensitization at human mGluR7 expressed in CHO cells assessed as reduction in tool agonist response at EC80 concentration preincubated for 1 hrs followed by compound replacement with assay buffer and measured 1 hrs after tool agonist addition by CellKey impedance assay relative to control. The format is cell-based.

The test system of data set [39] is Rattus norvegicus. Briefly: In vivo agonist activity in po dosed alcohol preferring Marchigian-Sardinian rat assessed as reduction in alcohol self-administration measured after 1 hrs. It counts as functional, organism-based. As to conditions: dose 0.3-3 mg/kg.

T1 sequence (Q14831 whole entry): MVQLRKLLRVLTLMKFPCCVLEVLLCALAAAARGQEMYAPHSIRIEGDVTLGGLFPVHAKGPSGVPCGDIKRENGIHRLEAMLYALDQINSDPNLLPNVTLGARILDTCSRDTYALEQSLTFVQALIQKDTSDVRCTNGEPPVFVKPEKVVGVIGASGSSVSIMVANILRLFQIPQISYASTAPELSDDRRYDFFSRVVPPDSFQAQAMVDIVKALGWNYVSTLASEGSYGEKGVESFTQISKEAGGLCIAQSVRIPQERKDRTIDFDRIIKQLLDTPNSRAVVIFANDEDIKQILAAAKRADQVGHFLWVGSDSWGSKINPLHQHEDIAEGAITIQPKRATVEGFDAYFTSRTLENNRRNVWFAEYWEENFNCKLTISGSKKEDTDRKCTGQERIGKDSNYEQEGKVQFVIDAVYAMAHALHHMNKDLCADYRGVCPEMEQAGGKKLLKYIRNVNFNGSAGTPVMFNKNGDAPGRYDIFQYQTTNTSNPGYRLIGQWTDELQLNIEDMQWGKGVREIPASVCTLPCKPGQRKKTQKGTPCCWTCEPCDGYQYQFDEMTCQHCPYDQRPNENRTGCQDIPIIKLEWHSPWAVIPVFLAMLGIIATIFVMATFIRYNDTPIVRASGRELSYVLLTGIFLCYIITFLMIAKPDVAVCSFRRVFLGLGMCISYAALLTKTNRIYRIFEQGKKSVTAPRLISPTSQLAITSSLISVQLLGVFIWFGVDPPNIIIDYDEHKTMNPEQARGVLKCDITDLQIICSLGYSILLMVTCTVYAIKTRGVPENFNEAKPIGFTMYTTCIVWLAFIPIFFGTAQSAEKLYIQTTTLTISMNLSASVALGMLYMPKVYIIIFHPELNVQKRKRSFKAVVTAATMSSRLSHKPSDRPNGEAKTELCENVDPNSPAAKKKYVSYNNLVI
Chain of Metabotropic glutamate receptor 5 (Homo sapiens) (P41594 21-1212 limits assumed): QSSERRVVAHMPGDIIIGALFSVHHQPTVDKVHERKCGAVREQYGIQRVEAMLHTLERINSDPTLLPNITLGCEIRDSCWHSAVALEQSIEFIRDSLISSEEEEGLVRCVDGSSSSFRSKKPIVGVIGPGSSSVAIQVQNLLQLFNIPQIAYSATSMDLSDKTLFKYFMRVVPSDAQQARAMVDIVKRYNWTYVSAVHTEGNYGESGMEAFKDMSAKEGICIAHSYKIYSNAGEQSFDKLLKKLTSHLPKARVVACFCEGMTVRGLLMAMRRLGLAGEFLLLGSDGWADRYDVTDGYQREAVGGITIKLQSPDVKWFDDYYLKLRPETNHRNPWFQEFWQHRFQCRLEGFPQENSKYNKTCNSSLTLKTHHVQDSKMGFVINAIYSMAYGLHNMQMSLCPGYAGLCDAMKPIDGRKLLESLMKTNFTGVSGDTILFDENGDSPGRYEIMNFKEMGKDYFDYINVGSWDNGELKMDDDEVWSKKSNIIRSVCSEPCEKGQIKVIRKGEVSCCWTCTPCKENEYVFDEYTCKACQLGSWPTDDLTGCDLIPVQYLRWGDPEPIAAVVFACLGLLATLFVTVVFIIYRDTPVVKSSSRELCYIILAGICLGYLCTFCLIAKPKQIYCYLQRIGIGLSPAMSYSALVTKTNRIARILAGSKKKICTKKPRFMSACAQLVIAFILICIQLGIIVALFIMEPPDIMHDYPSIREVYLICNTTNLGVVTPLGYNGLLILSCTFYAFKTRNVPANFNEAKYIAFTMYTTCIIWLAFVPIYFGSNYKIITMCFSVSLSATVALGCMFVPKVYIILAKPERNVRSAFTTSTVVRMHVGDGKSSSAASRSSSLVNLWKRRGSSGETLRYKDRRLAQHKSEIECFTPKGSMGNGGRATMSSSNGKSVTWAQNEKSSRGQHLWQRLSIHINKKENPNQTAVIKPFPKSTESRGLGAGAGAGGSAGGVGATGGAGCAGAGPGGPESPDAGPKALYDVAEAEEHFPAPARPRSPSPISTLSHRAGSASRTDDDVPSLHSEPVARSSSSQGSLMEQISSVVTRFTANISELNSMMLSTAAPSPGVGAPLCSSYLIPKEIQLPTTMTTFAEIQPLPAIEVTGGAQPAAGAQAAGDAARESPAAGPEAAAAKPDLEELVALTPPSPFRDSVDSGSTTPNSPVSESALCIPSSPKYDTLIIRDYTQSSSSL
Chain of Metabotropic glutamate receptor 4 (Homo sapiens) (Q14833 whole entry): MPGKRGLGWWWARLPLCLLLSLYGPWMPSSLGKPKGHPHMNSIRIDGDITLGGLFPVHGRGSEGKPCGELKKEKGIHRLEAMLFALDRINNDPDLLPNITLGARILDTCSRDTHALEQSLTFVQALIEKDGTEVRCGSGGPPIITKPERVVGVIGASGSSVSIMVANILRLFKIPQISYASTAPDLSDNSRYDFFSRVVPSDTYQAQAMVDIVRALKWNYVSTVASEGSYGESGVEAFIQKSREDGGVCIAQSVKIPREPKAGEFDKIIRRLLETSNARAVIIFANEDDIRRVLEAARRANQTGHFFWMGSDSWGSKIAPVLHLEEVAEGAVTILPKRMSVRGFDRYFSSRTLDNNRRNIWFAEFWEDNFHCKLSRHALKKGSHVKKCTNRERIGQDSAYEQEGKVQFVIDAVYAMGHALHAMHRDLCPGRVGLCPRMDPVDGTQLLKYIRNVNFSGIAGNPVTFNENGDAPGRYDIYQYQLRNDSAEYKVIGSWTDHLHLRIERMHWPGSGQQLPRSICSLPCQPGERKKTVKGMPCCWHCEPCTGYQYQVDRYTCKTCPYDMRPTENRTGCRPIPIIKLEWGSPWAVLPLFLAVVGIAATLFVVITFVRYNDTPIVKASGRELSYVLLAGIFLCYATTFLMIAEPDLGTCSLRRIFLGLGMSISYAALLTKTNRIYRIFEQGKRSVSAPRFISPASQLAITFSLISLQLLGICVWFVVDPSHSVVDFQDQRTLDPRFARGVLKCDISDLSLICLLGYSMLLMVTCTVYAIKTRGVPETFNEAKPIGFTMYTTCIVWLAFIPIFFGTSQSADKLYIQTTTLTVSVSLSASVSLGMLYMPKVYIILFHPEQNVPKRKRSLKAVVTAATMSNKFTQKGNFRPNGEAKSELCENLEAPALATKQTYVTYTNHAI
Chain of Metabotropic glutamate receptor 1 (Homo sapiens) (Q13255 19-1194 limits assumed): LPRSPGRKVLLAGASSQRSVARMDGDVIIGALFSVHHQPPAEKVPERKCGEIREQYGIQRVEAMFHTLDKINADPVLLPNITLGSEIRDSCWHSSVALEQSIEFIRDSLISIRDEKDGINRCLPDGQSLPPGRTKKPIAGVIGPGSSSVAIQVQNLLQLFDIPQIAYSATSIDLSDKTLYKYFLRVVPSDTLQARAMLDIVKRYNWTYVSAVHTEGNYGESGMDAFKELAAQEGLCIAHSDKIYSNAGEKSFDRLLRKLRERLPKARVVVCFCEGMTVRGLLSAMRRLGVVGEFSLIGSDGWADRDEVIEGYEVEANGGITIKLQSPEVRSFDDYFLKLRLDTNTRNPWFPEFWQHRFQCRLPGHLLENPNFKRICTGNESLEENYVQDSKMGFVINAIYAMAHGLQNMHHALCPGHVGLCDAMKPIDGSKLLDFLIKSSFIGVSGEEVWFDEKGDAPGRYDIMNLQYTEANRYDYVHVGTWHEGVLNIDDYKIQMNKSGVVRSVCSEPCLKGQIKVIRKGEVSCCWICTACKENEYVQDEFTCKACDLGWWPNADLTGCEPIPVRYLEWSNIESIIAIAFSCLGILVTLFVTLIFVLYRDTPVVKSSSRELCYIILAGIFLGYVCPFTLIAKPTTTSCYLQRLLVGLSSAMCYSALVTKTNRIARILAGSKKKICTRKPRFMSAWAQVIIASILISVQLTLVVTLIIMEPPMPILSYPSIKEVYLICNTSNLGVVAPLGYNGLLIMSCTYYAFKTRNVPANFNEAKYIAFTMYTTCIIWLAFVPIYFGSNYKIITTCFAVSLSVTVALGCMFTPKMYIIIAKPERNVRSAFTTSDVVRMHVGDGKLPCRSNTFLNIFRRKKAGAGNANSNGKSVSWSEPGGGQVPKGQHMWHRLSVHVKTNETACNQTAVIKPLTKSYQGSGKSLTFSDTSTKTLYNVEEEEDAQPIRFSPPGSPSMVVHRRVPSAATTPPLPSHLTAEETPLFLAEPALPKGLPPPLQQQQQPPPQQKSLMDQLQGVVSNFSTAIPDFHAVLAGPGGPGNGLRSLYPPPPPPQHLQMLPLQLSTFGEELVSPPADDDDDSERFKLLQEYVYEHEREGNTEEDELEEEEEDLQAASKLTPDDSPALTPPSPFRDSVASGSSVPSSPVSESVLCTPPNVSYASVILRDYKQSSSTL
Chain of Metabotropic glutamate receptor 6 (Homo sapiens) (O15303 whole entry): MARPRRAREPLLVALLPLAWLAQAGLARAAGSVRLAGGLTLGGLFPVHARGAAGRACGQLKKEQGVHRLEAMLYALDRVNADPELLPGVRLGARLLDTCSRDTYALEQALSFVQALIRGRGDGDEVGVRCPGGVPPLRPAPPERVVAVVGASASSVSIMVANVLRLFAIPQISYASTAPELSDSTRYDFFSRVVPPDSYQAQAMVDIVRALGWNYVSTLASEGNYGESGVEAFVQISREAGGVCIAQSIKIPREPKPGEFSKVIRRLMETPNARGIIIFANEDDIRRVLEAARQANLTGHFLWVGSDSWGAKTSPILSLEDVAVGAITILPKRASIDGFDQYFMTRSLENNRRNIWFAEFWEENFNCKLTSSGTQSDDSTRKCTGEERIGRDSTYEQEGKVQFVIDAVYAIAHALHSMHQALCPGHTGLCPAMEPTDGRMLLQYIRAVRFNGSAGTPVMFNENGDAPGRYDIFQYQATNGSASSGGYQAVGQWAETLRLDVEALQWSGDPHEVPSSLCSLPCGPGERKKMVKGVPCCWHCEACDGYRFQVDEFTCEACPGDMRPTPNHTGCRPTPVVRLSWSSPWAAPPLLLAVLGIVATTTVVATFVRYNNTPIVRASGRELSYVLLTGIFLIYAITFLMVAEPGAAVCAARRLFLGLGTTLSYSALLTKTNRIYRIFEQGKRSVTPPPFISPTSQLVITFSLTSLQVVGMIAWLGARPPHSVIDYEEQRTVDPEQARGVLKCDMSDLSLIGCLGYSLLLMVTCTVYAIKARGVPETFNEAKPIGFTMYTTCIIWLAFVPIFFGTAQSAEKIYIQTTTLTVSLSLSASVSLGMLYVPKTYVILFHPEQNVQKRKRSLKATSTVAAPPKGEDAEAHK
Chain of Metabotropic glutamate receptor 7 (Mus musculus, UniProt Q68ED2) (Q68ED2 whole entry): as the sequence (Q14831 whole entry) above, with R5G, A27V, S488T, A520P, D578N counted along it

In the case of `C[C@H](C(=O)N[C@@H]1CCc2ccccc2[C@H]1S(C)(=O)=O)c1ccc(F)cc1`, in data set [1], the Emax turned out to be 95%. Also, the microsomal CLint in data set [2] came out at 2 µL/min/mg; in data set [3], 55 µL/min/mg.
Consider `O=C(Nc1ccc(Oc2ccc(Cl)cn2)c(Cl)c1)c1ccccn1`, for which the Activity in [4] worked out at 43%. For the same molecule, the fold change (FC) in [5] was found to be 2.
As for `N[C@@H](CCP(=O)(O)O)C(=O)O`, in data set [6], the fold change (FC) is 13.
In the case of `c1ccc(C(NCCNC(c2ccccc2)c2ccccc2)c2ccccc2)cc1`, the outcome in data set [7], in data set [8], in [9] and in [13] was Active. Besides, in data set [10], the fold change (FC) is 2. Also, the EC50 in data set [11] came to 64 nM. The Activity in data set [12] came out at 74%.
Consider `O=C(Cc1ccc(Cl)cc1)NC1Cc2ccccc2C1`, for which the Emax in data set [1] was 71%. The EC50 in data set [14] was 156 nM.
Take `N[C@@H](CCC(=O)O)C(=O)O`: the result in data set [7] was Active.
As for `C[C@H](C(=O)NC1Cc2ccccc2C1)c1ccc(F)cc1`, in data set [1], the Emax stood at 96%. The EC50 in data set [14] was 55 nM.
In the case of `CNC[C@@H](OCC(=O)N1CCCc2ccccc21)c1ccccc1`, the EC50 in data set [11] came to 110 nM.
As for `C[C@@H](C(=O)NC1Cc2ccccc2C1)c1ccccc1`, in [1], the Emax is 69%. The EC50 in [14] is 1340 nM.
`C[C@H](C(=O)N[C@H]1COc2ccccc2[C@@H]1S(C)(=O)=O)c1ccc(F)cc1`: in data set [15], the t1/2 was found to be 2.25 h. In data set [16], the F is 24%. Further, the outcome in [17], in data set [18], in [24], in [27], in data set [29] and in data set [33] was inactive. Also, the result in data set [37] and in [38] was inactive. For the same molecule, the result in [7] was Active. This molecule came in with an AUC in data set [19] of 1404 ng·h/mL. Moreover, the Activity is 40.9 in data set [20], 25% in data set [21] and “Dose-Dependent Effect” in data set [39]. Further, the Emax in data set [1] was determined as 97%. In [22], the CLint scaled was 145 mL/min/kg. In data set [23], this molecule registered a Cmax of 1240 nM. The Tmax in data set [25] stood at 0.67 h. Also, the Fu in data set [26] was determined as 0.227; in data set [36], 0.283. For the same molecule, the “K(p,uu,brain)” value in data set [28] is recorded as 0.45. In [10], the fold change (FC) was determined as 2. Further, the BPR in data set [30] is reported as 0.56. In addition, the Vdss in data set [31] was found to be 1.49 L/kg. Besides, the EC50 came to 2 nM in data set [32] and 7 nM in [14]. In addition, the Papp in data set [34] came out at 16.2 ×10⁻⁶ cm/s. Moreover, in [35], the Ratio is listed as 0.5.
With `C[C@H](C(=O)NC1Cc2ccccc2C1)c1ccccc1`, the maximal effect (Emax) in data set [1] is 95%. Also, in data set [14], the EC50 was 113 nM.
